We go through 16 compounds from US20080171756A1, “N-Substituted Glycine Derivatives: Prolyl Hydroxylase Inhibitors” (priority 2007, published 2008).

The test system of the assay is Hep3B cells. As to the kind of experiment: Epo protein produced by Hep3B cell line, ELISA / AlphaLISA. The settings on record: Homo sapiens, 48 hours incubation, 100 micromolar = maximum concentration tested. It is filed as cell-based. As for the experimental part: Hep3B cells obtained from the American Type Culture Collection (ATCC) are seeded at 2×10̂4 cells/well in Dulbecco's Modified Eagle Medium (DMEM)+10% FBS in 96-well plates. Cells are incubated at 37deg C./5% CO2/90% humidity (standard cell culture incubation conditions). After overnight adherence, medium is removed and replaced with DMEM without serum containing test compound or DMSO negative control. Following 48 hours incubation, cell culture medium is collected and assayed by ELISA to quantitate Epo protein.
Hep3B cells obtained from the American Type Culture Collection (ATCC) are seeded at 2×10̂4 cells/well in Dulbecco's Modified Eagle Medium (DMEM)+10% FBS in 96-well plates. Cells are incubated at 37deg C./5% CO2/90% humidity (standard cell culture incubation conditions). After overnight adherence, medium is removed and replaced with DMEM with 2% serum containing test compound or DMSO negative control. Following 48 hours incubation, cell culture medium is collected and either frozen for later assay or assayed immediately by AlphaLISA to quantitate Epo protein.
(In an ELISA, binding on a coated surface is turned into a signal by an enzyme label.)
As to `Cc1cccc(C)c1-c1nc(O)c(C(=O)NCC(=O)O)c(=O)n1Cc1ccc(C(C)(C)C)cc1` [Example 40, N-{[1-{[4-(1,1-Dimethylethyl)phenyl]methyl}-2-(2,6-dimethylphenyl)-4-hydroxy-6-oxo-1,6-dihydro-5-pyrimidinyl]carbonyl}glycine], the concentration for a half-maximal effect (EC50) (usually the concentration at which the effect is half-maximal) is above 100 µM. `CC(C)(C)c1ccc(Cn2c(-c3c(-c4ccccc4)cccc3-c3ccccc3)nc(O)c(C(=O)NCC(=O)O)c2=O)cc1` [Example 43, N-{[1-{[4-(1,1-Dimethylethyl)phenyl]methyl}-4-hydroxy-6-oxo-2-(1,1′:3′,1″-terphenyl-2′-yl)-1,6-dihydro-5-pyrimidinyl]carbonyl}glycine]: the concentration for a half-maximal effect (EC50) is above 100 µM. `O=C(O)CNC(=O)c1c(O)nc(-c2cccc(C(=O)NCc3ccccc3)c2)n(Cc2ccccc2)c1=O` [Example 20, N-{[4-Hydroxy-6-oxo-1-(phenylmethyl)-2-(3-{[(phenylmethyl)amino]carbonyl}phenyl)-1,6-dihydro-5-pyrimidinyl]carbonyl}glycine] registered a half-maximal effective concentration (EC50) above 100 µM. `CC(C)(C)c1ccc(Cn2c(-c3ccccc3-c3ccc(C(F)(F)F)cc3)nc(O)c(C(=O)NCC(=O)O)c2=O)cc1` [Example 49, N-({1-{[4-(1,1-Dimethylethyl)phenyl]methyl}-4-hydroxy-6-oxo-2-[4′-(trifluoromethyl)-2-biphenylyl]-1,6-dihydro-5-pyrimidinyl}carbonyl)glycine] had a concentration giving a half-maximal response (EC50) above 100 µM.

Turning to `CC(C)CC(CC(C)C)c1nc(O)c(C(=O)NCC(=O)O)c(=O)n1Cc1ccc(C(C)(C)C)cc1` [Example 48], the EC50 was above 100 µM. `CC(C)(C)c1ccc(Cn2c(-c3c(Br)cccc3Br)nc(O)c(C(=O)NCC(=O)O)c2=O)cc1` [Example 42, N-[(2-(2,6-Dibromolphenyl)-1-{[4-(1,1-dimethylethyl)phenyl]methyl}-4-hydroxy-6-oxo-1,6-dihydro-5-pyrimidinyl)carbonyl]glycine] returned an EC50 above 100 µM. For the compound `O=C(O)CNC(=O)c1c(O)nc(-c2ccccc2)[nH]c1=O` [Example 2, N-[(4-Hydroxy-6-oxo-2-phenyl-1,6-dihydro-5-pyrimidinyl)carbonyl]glycine], the 50% effective concentration (EC50) was above 100 µM. Take `O=C(O)CNC(=O)c1c(O)nc(-c2ccccc2Cl)n(Cc2ccccc2)c1=O` [Example 30, N-{[2-(2-Chlorophenyl)-4-hydroxy-6-oxo-1-(phenylmethyl)-1,6-dihydro-5-pyrimidinyl]carbonyl}glycine]: the 50% effective concentration (EC50) was above 100 µM.

`CC(C)(C)c1ccc(Cn2c(-c3c(Cl)cc(Cl)cc3Cl)nc(O)c(C(=O)NCC(=O)O)c2=O)cc1` [Example 57, N-{[1-{[4-(1,1-Dimethylethyl)phenyl]methyl}-4-hydroxy-6-oxo-2-(2,4,6-trichlorophenyl)-1,6-dihydro-5-pyrimidinyl]carbonyl}glycine] showed a half-maximal effective concentration (EC50) above 100 µM. `CC(C)(C)c1ccc(Cn2c(-c3ccccc3-c3ccccc3)nc(O)c(C(=O)NCC(=O)O)c2=O)cc1` [Example 46, N-[(2-(2-Biphenylyl)-1-{[4-(1,1-dimethylethyl)phenyl]methyl}-4-hydroxy-6-oxo-1,6-dihydro-5-pyrimidinyl)carbonyl]glycine] gave a 50% effective concentration (EC50) above 100 µM. Then `CC(C)(C)c1ccc(Cn2c(-c3c(Cl)cccc3Cl)nc(O)c(C(=O)NCC(=O)O)c2=O)cc1` [Example 29, N-[(2-(2,6-Dichlorophenyl)-1-{[4-(1,1-dimethylethyl)phenyl]methyl}-4-hydroxy-6-oxo-1,6-dihydro-5-pyrimidinyl)carbonyl]glycine], with above 100 µM.

On to `CC(C)(C)c1ccc(Cn2c(-c3c(Cl)cccc3-c3ccccc3)nc(O)c(C(=O)NCC(=O)O)c2=O)cc1` [Example 55, N-[(2-(3-Chloro-2-biphenylyl)-1-{[4-(1,1-dimethylethyl)phenyl]methyl}-4-hydroxy-6-oxo-1,6-dihydro-5-pyrimidinyl)carbonyl]glycine], for which the 50% effective concentration (EC50) is above 100 µM. Then `O=C(O)CNC(=O)c1c(O)nc(-c2cccc(C(=O)O)c2)n(Cc2ccccc2)c1=O` [Example 26, 3-[5-{[(Carboxymethyl)amino]carbonyl}-4-hydroxy-6-oxo-1-(phenylmethyl)-1,6-dihydro-2-pyrimidinyl]benzoic acid], with above 100 µM; and `CC(C)(C)c1ccc(Cn2c(-c3ccccc3-c3cc(F)cc(F)c3)nc(O)c(C(=O)NCC(=O)O)c2=O)cc1` [Example 47, N-[(2-(3′,5′-Difluoro-2-biphenylyl)-1-{[4-(1,1-dimethylethyl)phenyl]methyl}-4-hydroxy-6-oxo-1,6-dihydro-5-pyrimidinyl)carbonyl]glycine], with above 100 µM. In the case of `O=C(O)CNC(=O)c1c(O)nc(-c2cccc(C(=O)O)c2)[nH]c1=O` [Example 18, 3-(5-{[(Carboxymethyl)amino]carbonyl}-4-hydroxy-6-oxo-1,6-dihydro-2-pyrimidinyl)benzoic acid], the half-maximal effective concentration (EC50) was above 100 µM. For `O=C(O)CNC(=O)c1c(O)nc(-c2c(Cl)cccc2-c2ccccc2)n(Cc2ccccc2Cl)c1=O` [Example 56, N-({2-(3-Chloro-2-biphenylyl)-1-[(2-chlorophenyl)methyl]-4-hydroxy-6-oxo-1,6-dihydro-5-pyrimidinyl}carbonyl)glycine], the EC50 is above 100 µM.
